Assay results published in PubChem BioAssay AID248 (DTP/NCI, 2004).
Values joined by “and” are separate entries in the source; they are usually repeats but may differ in a detail not shown here. Equal values may be shown once. Toxic doses and inconclusive results are not listed. No stated cut-off is given here; in the data, active means T/C of 150% or more; inactive means T/C below 125%.

Test system: L1210 leukemia ip in BDF1 mice, survival T/C
Experiment: NCI In Vivo Anticancer Drug Screen. Data for tumor model L1210 Leukemia (intraperitoneal) in B6D2F1 (BDF1) mice
Settings: endpoint: mean survival time, higher = longer survival
Method in brief: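 Survival endpoint. Drug-treated group vs vehicle group, expressed as T divided by C. Tumor passaged by transplantation.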

[1] = dose: 100.0 mg/kg/injection, schedule: Q04DX002 (ip), vehicle: Klucel (hydroxypropylcellulose) (HPC)
[2] = dose: 200.0 mg/kg/injection, schedule: Q04DX002 (ip), vehicle: Klucel (hydroxypropylcellulose) (HPC)
[3] = dose: 400.0 mg/kg/injection, schedule: Q04DX002 (ip), vehicle: Klucel (hydroxypropylcellulose) (HPC)

Measured: T/C

CCN(CC)CCN(C(=O)Cc1cccc2ccccc12)c1ccccc1N
inactive: dose: 19.0 mg/kg/injection, schedule: Q04DX003 (ip), vehicle: acid diluted with saline 94 % of control | dose: 38.0 mg/kg/injection, schedule: Q04DX003 (ip), vehicle: acid diluted with saline 102 % of control | dose: 75.0 mg/kg/injection, schedule: Q01DX001 (ip), vehicle: acid diluted with saline 105 % of control | dose: 75.0 mg/kg/injection, schedule: Q04DX003 (ip), vehicle: acid diluted with saline 100 % of control

NCCSC(O)(C(F)(F)F)C(F)(F)F
inactive: dose: 37.5 mg/kg/injection, schedule: Q04DX003 (ip), vehicle: saline 103 % of control | dose: 75.0 mg/kg/injection, schedule: Q01DX001 (ip), vehicle: saline 113 % of control and 101 % of control | dose: 75.0 mg/kg/injection, schedule: Q04DX003 (ip), vehicle: saline 102 % of control and 103 % of control | dose: 150.0 mg/kg/injection, schedule: Q01DX001 (ip), vehicle: saline 106 % of control and 109 % of control | dose: 150.0 mg/kg/injection, schedule: Q04DX003 (ip), vehicle: saline 104 % of control and 100 % of control

CCCCCCCCCCCCCCCC(=O)OCCCCCCCCCC
inactive: dose: 100.0 mg/kg/injection, schedule: Q04DX003 (ip), vehicle: saline with Tween-80 100 % of control | dose: 200.0 mg/kg/injection, schedule: Q04DX003 (ip), vehicle: saline with Tween-80 87 % of control | dose: 400.0 mg/kg/injection, schedule: Q04DX003 (ip), vehicle: saline with Tween-80 95 % of control

CS(=O)(=O)NCC1OC(n2cnc3c(N)ncnc32)C(O)C1O (stereo unspecified)
inactive: dose: 100.0 mg/kg/injection, schedule: Q01DX001 (ip), vehicle: saline 104 % of control | dose: 200.0 mg/kg/injection, schedule: Q01DX001 (ip), vehicle: saline 96 % of control | dose: 400.0 mg/kg/injection, schedule: Q01DX001 (ip), vehicle: saline 98 % of control

CCOc1cc(OCC)c(OCC)cc1/C=C1\N=C(c2ccccc2)OC1=O
inactive: [1] 96 % of control | [2] 96 % of control | [3] 96 % of control

CC1CCC2C1C1C(CCC2(C)O)C1(C)C (stereo unspecified)
inactive: dose: 100.0 mg/kg/injection, schedule: Q01DX009 (ip), vehicle: other 90 % of control | dose: 100.0 mg/kg/injection, schedule: Q04DX003 (ip), vehicle: saline sonified 103 % of control | dose: 200.0 mg/kg/injection, schedule: Q01DX009 (ip), vehicle: other 95 % of control | dose: 200.0 mg/kg/injection, schedule: Q04DX003 (ip), vehicle: saline sonified 103 % of control | dose: 400.0 mg/kg/injection, schedule: Q01DX009 (ip), vehicle: other 98 % of control | dose: 400.0 mg/kg/injection, schedule: Q04DX003 (ip), vehicle: saline sonified 102 % of control

Cc1ccc(NC(=O)Nc2ccc(Cl)cc2)c(C)c1
inactive: dose: 100.0 mg/kg/injection, schedule: Q01DX001 (ip), vehicle: carboxymethylcellulose (CMC) 101 % of control | dose: 200.0 mg/kg/injection, schedule: Q01DX001 (ip), vehicle: carboxymethylcellulose (CMC) 106 % of control | dose: 400.0 mg/kg/injection, schedule: Q01DX001 (ip), vehicle: carboxymethylcellulose (CMC) 98 % of control

CC(=O)OC1OC(C[Se][As](C)C)C(OC(C)=O)C(OC(C)=O)C1OC(C)=O (stereo unspecified)
inactive: dose: 100.0 mg/kg/injection, schedule: Q04DX003 (ip), vehicle: Klucel (hydroxypropylcellulose) (HPC) 104 % of control | dose: 200.0 mg/kg/injection, schedule: Q04DX003 (ip), vehicle: Klucel (hydroxypropylcellulose) (HPC) 98 % of control | dose: 400.0 mg/kg/injection, schedule: Q04DX003 (ip), vehicle: Klucel (hydroxypropylcellulose) (HPC) 95 % of control

CC(C)C1C(=O)N2CCCC2C2(O)OC(C(=O)NCCc3ccccc3)(C(C)C)C(=O)N12 (stereo unspecified)
inactive: dose: 25.0 mg/kg/injection, schedule: Q04DX003 (ip), vehicle: alcohol 98 % of control | dose: 50.0 mg/kg/injection, schedule: Q04DX003 (ip), vehicle: alcohol 105 % of control and 100 % of control | dose: 100.0 mg/kg/injection, schedule: Q04DX003 (ip), vehicle: alcohol 100 % of control and 104 % of control | dose: 200.0 mg/kg/injection, schedule: Q04DX003 (ip), vehicle: alcohol 100 % of control and 102 % of control | dose: 400.0 mg/kg/injection, schedule: Q04DX003 (ip), vehicle: alcohol 93 % of control

O=C(NNc1ccccc1)C(O)C(O)C(O)C(O)CO (stereo unspecified)
inactive: dose: 100.0 mg/kg/injection, schedule: Q01DX009 (ip), vehicle: saline with Tween-80 100 % of control | dose: 200.0 mg/kg/injection, schedule: Q01DX009 (ip), vehicle: saline with Tween-80 96 % of control | dose: 400.0 mg/kg/injection, schedule: Q01DX009 (ip), vehicle: saline with Tween-80 104 % of control

Cc1cc(O)c([N+](=O)[O-])c(=O)o1 (tested in a mixture with another compound)
inactive: [1] 108 % of control | [2] 97 % of control | [3] 87 % of control
